Measurements: US8624032B2, “Compound libraries made through phosphine-catalyzed annulation/Tebbe/Diels-Alder reactions” (The Regents of the University of California, priority 2011, dated 2014)
Converted amounts (≈) assume the structure as drawn.

Tests used:
[1] = tested on: MDA-MB-231 human breast cancer cells; experiment: trypan blue dye exclusion assay at the end of wound closure experiments; format: cell-based; conditions: lowest concentration tested with statistically significant cell death by the end of wound closure experiments
Procedure: Compounds were first screened at 50 μm and evaluated for their antimigratory activity and cytotoxicity. This was accomplished by scoring wounds as opened or closed as a function of time following wounding to determine the time to closure. Cell viability was determined by the trypan blue dye exclusion assay conducted at the end of each experiment, with the ratio of dye-non-excluding (dead) to dye-excluding (live) cells compared with the control, described in greater detail in Example 7.
Minimum lethal concentration (MLC) represents the lowest concentration tested at which there was statistically significant cell death, measured using the trypan blue dye exclusion assay, by the end of wound closure experiments. The minimum lethal concentration (MLC) for compound 94 under the conditions of the cell invasion assay was 50 μm. In the cell invasion assay, cells were at a lower density than in the wound closure assay, and compounds were added at the same time as the cells, rather than after attachment and growth.

MDA-MB-231 cells [2] = experiment: cell invasion assay through Matrigel in transwell chambers; format: cell-based, human; conditions: subtoxic concentrations, 24 hours
Procedure: Cell migration is a necessary condition for the metastasis of solid tumors. A major determinant of the metastatic potential of a cancer cell is its ability to invade through extracellular matrix barriers. Therefore, compounds 90, 92 and 94 were tested for their activities using a cell invasion assay.
Compounds 90, 92, and 94 were analyzed for their ability to inhibit the invasion of cells through Matrigel in a cell invasion assay. The assay was performed in transwell chambers according to the manufacturer's instructions (BD Biosciences). The polycarbonate membranes (8 μm pore size) of the upper chambers were coated with Matrigel (25 μg). Growth medium containing the tested compound or DMSO alone was added to the lower chambers ([…] per well in 24-well BD Falcon TC companion plates). […] After removing noninvaded cells from the upper surface of the membrane with a cotton swab, the invaded cells on the lower surface were fixed with MeOH, stained with crystal violet solution, rinsed with water, air-dried, and then counted by using an inverted microscope. In parallel experiments, cell viability, determined using the trypan blue dye exclusion assay at various concentrations of the tested compounds, was evaluated under the conditions of the cell invasion assay.

MDA-MB-231 cells [3] = experiment: tetrazolium salt-based cell proliferation and viability assay (CCK-8); set-up: species or system human; conditions: 48 hours
Procedure: Compounds 90, 92 and 94 were also evaluated in a tetrazolium salt-based cell proliferation and viability assay.
The cell proliferation and cell viability assay was conducted according to the manufacturer's instructions (CCK-8; Dojindo Molecular Technologies). MDA-MB-231 cells were plated in 96-well tissue culture plates ([…] per well of a 4×10^4 cells per mL suspension in growth medium) and incubated for 24 hours at 37° C. under 5% CO2. The cells were then treated with the tested compounds at various concentrations or with DMSO alone. In all cases, the final DMSO concentration was 0.05%. At the same time, other cells from parallel plates were analyzed using the CCK-8 assay to establish the cell density at the start of the experiment. After 48 hours of incubation, the cell numbers for the experimental samples were determined and compared with the initial cell numbers.

[4] = tested on: MDA-MB-231 human breast cancer cells; experiment: wound closure assay (cell migration); format: cell-based; conditions: for effect on wound closure or cytotoxicity in the screen: 24 hours after wounding
Procedure: In the wound closure assay, MDA-MB-231 cells (American Type Culture Collection number: HTB-26) were cultured in 75 cm^2 tissue culture flasks with growth medium (DMEM containing 10% fetal bovine serum) at 37° C. under 5% CO2 in a humidified tissue culture incubator. The cells were grown to 80% confluence and then treated with trypsin, collected, and replated in 96-well tissue culture plates for initial screening. Once confluent, the cell cultures were treated with compounds at various concentrations or with DMSO carrier solvent alone with fresh growth medium. In all cases, the final DMSO concentration was 0.05%. After 30 minutes, the cell cultures were wounded with a sterile micropipette tip, and the wound closure experiments were performed essentially as described previously.
Cell monolayers in 24-well tissue culture plates were treated with different concentrations of each compound 30 minutes before wounding and then wounded, as described above.
Digital images of the wounds were captured immediately after wounding and at 3 h, 6 h, 9 h, 12 h, and 24 hours post-wounding. The open wound areas, as a function of time after wounding, were determined with NIH Image J software to establish the mean percent wound closure over time for each treatment and parallel controls, as previously described. The mean percent wound closure values at 9 hours post-wounding for all concentrations up to the maximal subtoxic concentration were subjected to nonlinear regression to calculate IC50 values and 95% confidence intervals for inhibition of wound closure.
The Minimum Inhibitory Concentration (MIC) column of Table 1 represents the lowest concentration tested at which there was statistically significant inhibitory activity in the wound closure assay as determined by unpaired, two-tailed Student's t-tests (P<0.05).
Half-maximal inhibitory concentration (IC50) values shown in Table 1 were calculated for inhibition of wound closure at 9 hours post-wounding from concentration—response profiles for a range of subtoxic concentrations (n=7−9 wounds from three independent experiments).

cell migration = conditions: natural product comparator; read-out: IC50 (inhibition of cell migration); cited from earlier work

In the case of `CCOc1cc2c(c3c1C(c1ccccc1)N(S(=O)(=O)c1ccc(C)cc1)C3)C(=O)C=CC2=O` (centres unmarked) [Compound 92], the “MLC (minimum lethal concentration)” value [1] is reported as 50 µM (≈ 23.7 µg/mL), the “activity against cell invasion” value (MDA-MB-231 cells [2]) is reported as “inhibit cell migration and invasion at subtoxic concentrations” and the “inhibition of cell growth” value (MDA-MB-231 cells [3]; concentrations that inhibit migration and invasion) is reported as “did not inhibit cell growth”. The cytotoxicity (MDA-MB-231 cells [3]; higher concentrations) was “become cytotoxic at higher concentrations over a very narrow range”, the “effect on wound closure or cytotoxicity in the screen” value (“effect” for short) ([4]; 2 μm) was “inactive” and the “effect” value ([4]; 10 μm) was “inhibit wound closure or were cytotoxic”. The “effect” value ([4]; 50 μm) was “inhibit wound closure or were cytotoxic”, the IC50 ([4]; Homo sapiens, MDA-MB-231, 9 hours post-wounding, subtoxic concentrations, n=7-9 wounds from three independent experiments, read-out: IC50 (inhibition of wound closure)) was 14.8 µM and the “MIC (minimum inhibitory concentration, wound closure)” value ([4]; lowest concentration tested with statistically significant inhibitory activity (P<0.05)) was 5 µM (≈ 2.37 µg/mL). For the same molecule, the “antimigratory activity in the wound closure assay” value ([4]; subtoxic concentrations) was “exhibited subtoxic antimigratory activity”.
For `CO[C@H]1/C=C/CC/C=C/C(=O)O[C@H]([C@H](C)C(=O)CCCC2CC(=O)NC(=O)C2)/C(C)=C\[C@@H](C)[C@@H]1O` [migrastatin], the IC50 (cell migration) is listed as 29 µM.
